# Assay results reported in patent publication US10030027B2, “Soluble guanylate cyclase stimulators” (MERCK SHARP & DOHME CORP., priority 2015, dated 2018).
# pEC50, pKi: −log10 of the molar value.
# What was measured:
# [1] = target: sGC α1/β1 heterodimer (Homo sapiens (Human), UniProt Q02108+Q02153); assay: Cell-based sGC functional assay (cyclic GMP assay for sGC activator: CASA assay); set-up: % Activation: concentration or dose not given beside the values; settings: CHO-K1/sGC cells; for Emax: CHO-K1, activity expressed as percentage of compound A (standard), read-out: % Activation; for pEC50: inflection point, 4P fit, read-out: IP; for % Activation: activity expressed as percentage of compound A (standard)
# How it was run: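 CHO-K1 cells stably expressing sGC α1/β1 were pre-incubated with or without 1 μM DETA-NO (30 min, 25 °C), then exposed to compounds for 1 hr at 37 °C with 0.5 mM IBMX. Intracellular cGMP was read by HTRF and expressed as a percentage of a reference heme-dependent activator's maximum.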
# [2] = target: human recombinant sGC enzyme (Homo sapiens (Human), UniProt Q02108+Q02153); assay: Size Exclusion Chromatography (SEC) competition binding assay using [3H] Ex-77B as the radioligand; settings: [3H] Ex-77B radioligand, 24 hours at 37° C.
# How it was run: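 Recombinant human sGC binding measured by competition against tritiated Ex-77B radioligand, with non-specific binding defined by 1 μM unlabeled Ex-77B.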
# [3] = test system: Spontaneously hypertensive rats (SHR); assay: Acute efficacy in spontaneously hypertensive rats (SHR); assay type: in vivo, rat
# From the text: Acute Efficacy in Spontaneously Hypertensive Rats (SHR)
# Spontaneously hypertensive rats (SHR, male, Charles River) were implanted with DSI TA11PA-C40 telemetry device (Data Sciences, Inc., St. Paul, Minn.) under isoflurane or ketamine/metomidine anesthesia. The telemetry unit catheter was inserted into the descending aorta via the femoral artery and the telemetry device was implanted subcutaneously in the left flank area. Animals were allowed to recover from surgery for 14 days before the start of any studies. Blood pressure, heart rate, and activity signals from conscious, freely moving rats were recorded continuously for 30 seconds every 10 minutes. On the day prior to administration of compound, a single oral dose of vehicle (10% transcutol/20% Cremophor/70% water) was administered to all animals to establish baseline control data. The blood pressure lowering efficacy of compound (PO) or vehicle was evaluated following a single oral gavage. Data were collected as hourly averages, and changes in blood pressure were calculated by subtracting control baseline data on an hourly basis. Animals were maintained on normal diet with a 12 hour light-dark cycle.
# Maximum peak decreases of systolic blood pressure (SBP) in SHR at a particular P.O. dose (mpk milligrams per kilogram) for the following Example compounds are provided.
SMILES,Emax [1],pEC50 [1],pKi [2],Category: maximum peak decrease of systolic blood pressure (SBP) in SHR ([3]; Dose P.O. 3 mpk),Category: maximum peak decrease of systolic blood pressure (SBP) in SHR ([3]; Dose P.O. 1 mpk),% Activation [1]
"C[C@@]1(c2ccc(CCC(=O)O)cc2)C(=O)Nc2nc(-c3nn(CC4CCCCC4)c4cc(Cl)ccc34)nc(N)c21 [Example 44B, (S)-3-(4-{4-amino-2-[6-chloro-1-(cyclohexylmethyl)-1H-indazol-3-yl]-5-methyl-6-oxo-6,7-dihydro-5H-pyrrolo[2,3-d]pyrimidin-5-yl}phenyl)propanoic acid]",127%,6.61,9.91,C (decrease in SBP in SHRs>40 mmHg),,
"CC(C)(Cc1csc([C@]2(C)C(=O)Nc3nc(-c4nn(CCCC(F)(F)F)c5nc(Cl)ccc45)nc(N)c32)n1)C(=O)O [Example 89B, (S)-3-(2-{4-amino-2-[6-chloro-1-(4,4,4-trifluorobutyl)-1H-pyrazolo[3,4-b]pyridin-3-yl]-5-methyl-6-oxo-6,7-dihydro-5H-pyrrolo[2,3-d]pyrimidin-5-yl}-1,3-thiazol-4-yl)-2,2-dimethylpropanoic acid]",108%,6.35,9.46,B (decrease in SBP in SHRs 25-40 mmHg),,
"CC(C)(Cc1cccc(C2(C)C(=O)Nc3nc(-c4nn(CCC(F)(F)C(F)(F)F)c5cc(Cl)ccc45)nc(N)c32)c1)C(=O)O (centres unmarked) [Example 27B, 3-(3-{4-amino-2-[6-chloro-1-(3,3,4,4,4-pentafluorobutyl)-1H-indazol-3-yl]-5-methyl-6-oxo-6,7-dihydro-5H-pyrrolo[2,3-d]pyrimidin-5-yl}phenyl)-2,2-dimethylpropanoic acid]",120%,6.48,9.66,,A (decrease in SBP in SHRs 5-25 mmHg),
"CCCCn1nc(-c2nc(N)c3c(n2)NC(=O)C3(C)c2nc(CC(C)(C)C(=O)O)cs2)c2cccnc21 (centres unmarked) [Example 86A, 3-{2-[4-amino-2-(1-butyl-1H-pyrazolo[3,4-b]pyridin-3-yl)-5-methyl-6-oxo-6,7-dihydro-5H-pyrrolo[2,3-d]pyrimidin-5-yl]-1,3-thiazol-4-yl}-2,2-dimethylpropanoic acid]",102%,6.61,9.49,,A (decrease in SBP in SHRs 5-25 mmHg),
"C[C@@]1(c2ccc(CCC(=O)O)cc2)C(=O)Nc2nc(-c3nn(CC4CCC(F)(F)CC4)c4cc(Cl)ccc34)nc(N)c21 [Example 58B, (S)-3-(4-[4-amino-2-{6-chloro-1-[(4,4-difluorocyclohexyl)methyl]-1H-indazol-3-yl}-5-methyl-6-oxo-6,7-dihydro-5H-pyrrolo[2,3-d]pyrimidin-5-yl]phenyl)propanoic acid]",65%,5.95,9.31,A (decrease in SBP in SHRs 5-25 mmHg),,
"CC(C)(C)CCCn1nc(-c2nc(N)c3c(n2)NC(=O)[C@@]3(C)c2ccc(CCC(=O)O)cc2)c2ccc(Cl)cc21 [Example 52B, (S)-3-(4-{4-amino-2-[6-chloro-1-(4,4-dimethylpentyl)-1H-indazol-3-yl]-5-methyl-6-oxo-6,7-dihydro-5H-pyrrolo[2,3-d]pyrimidin-5-yl}phenyl)propanoic acid]",109%,6.30,9.38,A (decrease in SBP in SHRs 5-25 mmHg),,
"CCCCn1nc(-c2nc(N)c3c(n2)NC(=O)[C@@]3(C)c2ccc(CCC(=O)O)cc2)c2ccc(Cl)nc21 [Example 13B, (S)-3-(4-{4-amino-2-(1-butyl-6-chloro-1H-pyrazolo[3,4-b]pyridin-3-yl)-5-methyl-6-oxo-6,7-dihydro-5H-pyrrolo[2,3-d]pyrimidin-5-yl}phenyl)propanoic acid]",86%,6.82,9.95,A (decrease in SBP in SHRs 5-25 mmHg),,
"CC(C)(CC(=O)O)c1csc([C@]2(C)C(=O)Nc3nc(-c4nn(CCC(F)(F)C(F)(F)F)c5ncccc45)nc(N)c32)n1 [Example 79B, (S)-3-(2-{4-amino-5-methyl-6-oxo-2-[1-(3,3,4,4,4-pentafluorobutyl)-1H-pyrazolo[3,4-b]pyridin-3-yl]-6,7-dihydro-5H-pyrrolo[2,3-d]pyrimidin-5-yl}-1,3-thiazol-4-yl)-3-methylbutanoic acid]",124%,6.07,9.38,A (decrease in SBP in SHRs 5-25 mmHg),,
"Cc1ccc2c(-c3nc(N)c4c(n3)NC(=O)[C@@]4(C)c3ccc(CCC(=O)O)cc3)nn(Cc3ccccc3F)c2c1 [Example 59B, (S)-3-(4-{4-amino-2-[1-(2-fluorobenzyl)-6-methyl-1H-indazol-3-yl]-5-methyl-6-oxo-6,7-dihydro-5H-pyrrolo[2,3-d]pyrimidin-5-yl}phenyl)propanoic acid]",116%,6.07,9.53,A (decrease in SBP in SHRs 5-25 mmHg),,
"C[C@@]1(c2ccc(CCC(=O)O)cc2)C(=O)Nc2nc(-c3nn(Cc4ccccc4F)c4ccccc34)nc(N)c21 [Example 76B, (S)-3-(4-{4-Amino-2-[1-(2-fluorobenzyl)-1H-indazol-3-yl]-5-methyl-6-oxo-6,7-dihydro-5H-pyrrolo[2,3-d]pyrimidin-5-yl}phenyl)propanoic acid]",,,,B (decrease in SBP in SHRs 25-40 mmHg),,
"CC(Cc1ccc(C2(C)C(=O)Nc3nc(-c4nn(CCC(F)(F)C(F)(F)F)c5cc(Cl)ccc45)nc(N)c32)cc1)C(=O)O (single isomer, unassigned) [Example 34AB, 3-(4-{4-amino-2-[6-chloro-1-(3,3,4,4,4-pentafluorobutyl)-1H-indazol-3-yl]-5-methyl-6-oxo-6,7-dihydro-5H-pyrrolo[2,3-d]pyrimidin-5-yl}phenyl)-2-methylpropanoic acid]",,6.11,9.64,,A (decrease in SBP in SHRs 5-25 mmHg),115%
"C[C@@]1(c2ccc(CCC(=O)O)cc2)C(=O)Nc2nc(-c3nn(CC45CC6CC(CC(C6)C4)C5)c4cc(Cl)ccc34)nc(N)c21 [Example 70B, (S)-3-(4-{2-[1-(adamantan-1-ylmethyl)-6-chloro-1H-indazol-3-yl]-4-amino-5-methyl-6-oxo-6,7-dihydro-5H-pyrrolo[2,3-d]pyrimidin-5-yl}phenyl)propanoic acid]",120%,6.19,,A (decrease in SBP in SHRs 5-25 mmHg),,
"CC(Cc1ccc(C2(C)C(=O)Nc3nc(-c4nn(CCC(F)(F)C(F)(F)F)c5cc(Cl)ccc45)nc(N)c32)cc1)C(=O)O (single isomer, unassigned) [Example 34AA, 3-(4-{4-amino-2-[6-chloro-1-(3,3,4,4,4-pentafluorobutyl)-1H-indazol-3-yl]-5-methyl-6-oxo-6,7-dihydro-5H-pyrrolo[2,3-d]pyrimidin-5-yl}phenyl)-2-methylpropanoic acid]",,6.36,9.86,A (decrease in SBP in SHRs 5-25 mmHg),,81%
CC(C)(Cc1ccc(C2(C)C(=O)Nc3nc(-c4nn(CCC(F)(F)C(F)(F)F)c5ncccc45)nc(N)c32)cc1)C(=O)O (centres unmarked) [Example 9B],118%,5.86,9.43,A (decrease in SBP in SHRs 5-25 mmHg),,
"CC1CCC(Cn2nc(-c3nc(N)c4c(n3)NC(=O)[C@@]4(C)c3ccc(CCC(=O)O)cc3)c3ccc(Cl)cc32)CC1 (single isomer, unassigned) [Example 5BA]",,6.88,9.79,B (decrease in SBP in SHRs 25-40 mmHg),,76%
"Cc1cccc(Cn2nc(-c3nc(N)c4c(n3)NC(=O)[C@@]4(C)c3ccc(CCC(=O)O)cc3)c3ccc(Cl)cc32)c1 [Example 66B, (S)-3-(4-{4-amino-2-[6-chloro-1-(3-methylbenzyl)-1H-indazol-3-yl]-5-methyl-6-oxo-6,7-dihydro-5H-pyrrolo[2,3-d]pyrimidin-5-yl}phenyl)propanoic acid]",107%,6.62,9.31,,,
"C[C@@]1(c2ccc(CCC(=O)O)cc2)C(=O)Nc2nc(-c3nn(Cc4cccc(F)c4)c4cc(Cl)ccc34)nc(N)c21 [Example 69B, (S)-3-(4-{4-amino-2-[6-chloro-1-(3-fluorobenzyl)-1H-indazol-3-yl]-5-methyl-6-oxo-6,7-dihydro-5H-pyrrolo[2,3-d]pyrimidin-5-yl}phenyl)propanoic acid]",139%,6.54,10.00,,,
